# Results: ChEMBL document CHEMBL1153627, “Optimization of piperidin-4-yl-urea-containing melanin-concentrating hormone receptor 1 (MCH-R1) antagonists: Reducing hERG-associated liabilities” (Bioorg Med Chem Lett, 2009)
# Test: Clearance in rat
# Assay type: ADME, organism-based
# Conditions: in vivo
smiles,measurement,value
O=C(NC1CCN(Cc2ccn(-c3ccc(C(F)(F)F)cc3)c2)CC1)N[C@H](CO)c1ccccc1,clearance,154 mL/min/kg
